Results on 4 compounds are retold here after patent US7173053B2, “N-formyl hydroxylamine derivatives as inhibitors of bacterial polypeptide formylase for treating microbial infections” (British Biotech Pharmaceuticals Limited, priority 2000, dated 2007).

SMILES strings stand for the structures. ≈ marks a conversion by molar mass, not a printed value.

The test system of one assay is S. pneumoniae ATCC 49619. The assay is described as follows: agar plate dilution MIC, S. pneumoniae ATCC 49619. It is filed as cell-based. The settings on record: Streptococcus pneumoniae, ATCC49619, Iso-Sensitest agar pH 7.2, 18 to 24 hr incubation. The procedure: (§1) The susceptibilities of two strains of bacteria to the compounds of Example 1–4 were determined by a standard agar plate dilution method following recommendations in British Society for Antimicrobial Chemotherapy Working Party. 1991, “A guide to sensitivity testing British Society for Antimicrobial Chemotherapy, London, United Kingdom”. Briefly, Iso-Sensitest agar (pH 7.2: Oxoid, United Kingdom) is employed, supplemented with 5% horse blood (Oxoid) and 20 μg of NAD (Sigma) per ml are added to support growth of fastidious bacteria. The inoculum used is approximately 10^4 colony forming units of each isolate contained in a volume of 1 μl. Plates are incubated 18 to 24 hr in air, or for fasidious bacteria an atmosphere enriched with 4–6% carbon dioxide at 35° C. The MIC is determined as the lowest concentration of an antimicrobial tested that inhibited growth of the inoculum, disregarding a single persisting colony or faint haze caused by the inoculation.

The subject of another assay is S. aureus ATCC 29213. The experiment in a line: agar plate dilution MIC, S. aureus ATCC 29213. The class given is cell-based. The following applies: Staphylococcus aureus, ATCC29213, Iso-Sensitest agar pH 7.2, 18 to 24 hr incubation. The procedure: as §1

For the compound `CCCC[C@H](CN(O)C=O)C(=O)N[C@H](c1nc2ccccc2[nH]1)C(C)(C)C` [Example 4, 2-[(Formyl-hydroxy-amino)-methyl]-hexanoic acid [1-(1H-benzoimidazol-2-yl)-2,2-dimethyl-propyl]-amide], the MIC turned out to be 4 µg/mL (≈ 10.7 µM) against S. pneumoniae ATCC 49619 and 8 µg/mL (≈ 21.4 µM) against S. aureus ATCC 29213.
For `CC(C)(C)[C@H](NC(=O)[C@H](CC1CCCC1)CN(O)C=O)c1nc2cc(F)ccc2[nH]1` [Example 1, 2R-Cyclopentylmethyl-N-[1S-(5-fluoro-1H-benzoimidazol-2-yl)-2,2-dimethyl-propyl]-3-(formyl-hydroxy-amino)-propionamide], in that order: 2 µg/mL (≈ 4.78 µM) and 4 µg/mL (≈ 9.56 µM).
For `CC(C)(C)[C@H](NC(=O)[C@H](CC1CCCC1)CN(O)C=O)c1nc2cc(Cl)ccc2[nH]1` [Example 2, N-[1-(5-Chloro-1H-benzoimidazol-2-yl)-2,2-dimethyl-propyl]-2-cyclopentylmethyl-3-(formyl-hydroxy-amino)-propionamide], in that order: 2 µg/mL (≈ 4.6 µM) and 8 µg/mL (≈ 18.4 µM).
On the same counts, the results for `CC(C)(C)[C@H](NC(=O)[C@H](CC1CCCC1)CN(O)C=O)c1nc2ccccc2[nH]1` [Example 3, N-[1-(1H-Benzoimidazol-2-yl)-2,2-dimethyl-propyl]-2-cyclopentylmethyl-3-(formyl-hydroxy-amino)-propionamide] are 2 µg/mL (≈ 4.99 µM) and 8 µg/mL (≈ 20 µM).

Usually MIC stands for the smallest concentration in the dilution series that meets the test's criterion for growth inhibition.
